Source: patent publication US11274082B2, “Tead inhibitors and uses thereof” (Ikena Oncology, Inc., priority 2019, dated 2022)
Read-outs that look alike come from different tables or passages of the source.

How the values were obtained:
[1] = tested on: TEAD; test: TEAD reporter assay (Hippo Pathway TEAD Reporter - MCF7 cell line, luciferase); assay type: cell-based; conditions: Homo sapiens
Description: TEAD inhibition can be assayed using Hippo Pathway TEAD Reporter—MCF7 Cell Line (BPS Bioscience, Catalog #: 60618).
The TEAD Reporter—MCF7 cell line contains the firefly luciferase gene under the control of TEAD responsive elements stably integrated into the human breast cancer cell line, MCF7. Inside the cells, basal unphosphorylated YAP/TAZ remains in the nucleus and induces the constitutive expression of luciferase reporter. The cell line is validated for the inhibition of the expression of luciferase reporter by the activators of the Hippo pathway.
• 1) Harvest TEAD Reporter—MCF7 cells from culture in growth medium and seed cells at a density of 35,000 cells per well into white clear-bottom 96-well microplate in 45 μl of assay medium. • 2) Incubate cells at 37° C. in a CO2 incubator for overnight. • 3) Dilute the activators (H2O2 or okadaic acid) stock in assay medium. Add 5 μl of diluted activators to the wells. The final concentration of DMSO in assay medium is 0.1%. • 4) Add 5 μl of assay medium with same concentration of DMSO without activator to control wells. • 5) Add 50 μl of assay medium with DMSO to cell-free control wells (for determining background luminescence). • 6) Set up each treatment in at least triplicate. • 7) Incubate cells at 37° C. in a CO2 incubator for 5-6 hours. • 8) Perform luciferase assay using the ONE-Step™ Luciferase Assay System following the protocol provided: Add 100 μl of ONE-Step™ Luciferase reagent per well and rock at room temperature for ˜15 minutes. Measure luminescence using a luminometer. • 9) Data Analysis: Obtain the background-subtracted luminescence by subtracting the average background luminescence (cell-free control wells) from the luminescence reading of all wells.
(§1) Certain compounds were tested in TEAD reporter assay, and in H226 and H28. A: EC50<0.1 uM; B: 0.1 uM≤EC50≤0.5 uM; C: EC50>0.5 uM.

[2] = tested on: H226; test: Anti-proliferation assay in H226 cells; assay type: cell-based; conditions: Homo sapiens
Experimental: as §1
Individual cell lines were grown in medium according to supplier instructions and seeded into 96-well plates at a density that ensured logarithmic growth over 72 hours. TEAD inhibitor compounds were administered to cells at a top concentration of 10 μm and subsequently a 10 point 3-fold serial dilution was conducted. After 72 hours, proliferation was quantified using Cell TITERGLO™ (Promega, Inc.) and compared to vehicle control. IC50 and EC50 values were generated using XLFit curve fitting software.

[3] = TEAD Reporter - MCF7 cells, read-out: TEAD Reporter Assay EC50
[4] = NCI-H226, H226 cells, read-out: H226 EC50
[5] = MCF7, read-out: TEAD Reporter Assay EC50 (uM)
[6] = NCI-H226, read-out: H226 EC50 (uM)

EC50 [1, 3] | EC50 [2, 4] | Compound | EC50 [1, 5] | EC50 [2, 6]
> 0.5 µM | 0.1 to 0.5 µM | CNS(=O)(=O)c1ccc(Nc2ccc(C(F)(F)F)nn2)c(-c2cn(C)cn2)c1 [I-77, N-Methyl-3-(1-methylimidazol-4-yl)-4-[[6-(trifluoromethyl)pyridazin-3-yl]amino]benzenesulfonamide] |  | 
< 0.1 µM | < 0.1 µM | CNS(=O)(=O)c1ccc(Nc2ccc(C(F)(F)F)nc2)c(-c2cn(C)cn2)c1 [I-75, N-Methyl-3-(1-methylimidazol-4-yl)-4-[[6-(trifluoromethyl)-3-pyridyl]amino]benzenesulfonamide] |  | 
< 0.1 µM | < 0.1 µM | CNS(=O)(=O)c1ccc(Nc2ncc(C(F)(F)F)cn2)c(-c2cn(C)cn2)c1 [I-78, N-Methyl-3-(1-methylimidazol-4-yl)-4-[[5-(trifluoromethyl)pyrimidin-2-yl]amino]benzenesulfonamide] |  | 
< 0.1 µM | < 0.1 µM | CNS(=O)(=O)c1ccc(Nc2ccc(C(C)(C)C)cn2)c(-c2cn(C)cn2)c1 [I-80, 4-[(5-tert-Butyl-2-pyridyl)amino]-N-methyl-3-(1-methylimidazol-4-yl)benzenesulfonamide] |  | 
< 0.1 µM | < 0.1 µM | CNS(=O)(=O)c1ccc(Nc2cc(C(F)(F)F)ccn2)c(-c2cn(C3CC3)cn2)c1 [I-54, 3-(1-Cyclopropylimidazol-4-yl)-N-methyl-4-[[4-(trifluoromethyl)-2-pyridyl]amino]benzenesulfonamide] |  | 
> 0.5 µM | > 0.5 µM | CNS(=O)(=O)c1ccc(Oc2cccc(C(F)(F)F)c2)c(-c2cn(C)cn2)c1 [I-22, Y-Methyl-3-(1-methyl-1H-imidazol-4-yl)-4-(3-(trifluoromethyl)phenoxy)benzenesulfonamide] |  | 
0.1 to 0.5 µM | < 0.1 µM | CNS(=O)(=O)c1ccc(NCc2ccc(C(F)(F)F)cn2)c(-c2cn(C)cn2)c1 [I-70, N-Methyl-3-(1-methylimidazol-4-yl)-4-[[5-(trifluoromethyl)-2-pyridyl]methylamino]benzenesulfonamide] |  | 
< 0.1 µM | < 0.1 µM | CCNS(=O)(=O)c1ccc(Nc2ccc(C(F)(F)F)cn2)c(-c2cn(C)cn2)c1 [I-65, N-ethyl-3-(1-methylimidazol-4-yl)-4-[[5-(trifluoromethyl)-2-pyridyl]amino]benzenesulfonamide] |  | 
> 0.5 µM | > 0.5 µM | COC(=O)c1ccc(NCc2ccccc2)c(-c2nnn(C)n2)c1 [I-26, Methyl 4-(benzylamino)-3-(2-methyltetrazol-5-yl)benzoate] |  | 
> 0.5 µM | > 0.5 µM | CNS(=O)(=O)c1ccc(NC(CO)c2ccccc2)c(-c2cn(C)cn2)c1 (stereo in doubt) [I-39, 4-[[(1S)-2-Hydroxy-1-phenyl-ethyl]amino]-N-methyl-3-(1-methylimidazol-4-yl)benzenesulfonamide] |  | 
 |  | CC[C@@H](Nc1ccc(S(=O)(=O)NC)cc1-c1cn(C)cn1)c1ccccc1 [I-45, N-Methyl-3-(1-methylimidazol-4-yl)-4-[[(1R)-1-phenylpropyl]amino]benzenesulfonamide] | 0.1 to 0.5 µM | 0.1 to 0.5 µM
> 0.5 µM | 0.1 to 0.5 µM | Cn1cnc(-c2cc(S(N)(=O)=O)ccc2Nc2cc(C(F)(F)F)ccn2)c1 [I-49, 3-(1-Methylimidazol-4-yl)-4-[[4-(trifluoromethyl)-2-pyridyl]amino]benzenesulfonamide] |  | 
> 0.5 µM | > 0.5 µM | CNS(=O)(=O)c1ccc(N[C@H]2CCCc3ccccc32)c(-c2cn(C)cn2)c1 [I-52, N-Methyl-3-(1-methylimidazol-4-yl)-4-[[(1S)-tetralin-1-yl]amino]benzenesulfonamide] |  | 
< 0.1 µM | < 0.1 µM | CNS(=O)(=O)c1ccc(Nc2ccc(C(F)(F)F)cn2)c(-c2cn(C(C)C)cn2)c1 [I-85, 3-(1-isopropylimidazol-4-yl)-N-methyl-4-[[5-(trifluoromethyl)-2-pyridyl]amino]benzenesulfonamide] |  | 
> 0.5 µM | 0.1 to 0.5 µM | CC(C)NS(=O)(=O)c1ccc(Nc2cc(C(F)(F)F)ccn2)c(-c2cn(C)cn2)c1 [I-66, N-Isopropyl-3-(1-methylimidazol-4-yl)-4-[[4-(trifluoromethyl)-2-pyridyl]amino]benzenesulfonamide] |  | 
> 0.5 µM | > 0.5 µM | CNS(=O)(=O)c1ccc(N[C@@H](C)c2ccc(C(F)(F)F)cc2)c(-c2cn(C)cn2)c1 [I-57, N-Methyl-3-(1-methylimidazol-4-yl)-4-[[(1S)-1-[4-(trifluoromethyl)phenyl]ethyl]amino]benzenesulfonamide] |  | 
< 0.1 µM | < 0.1 µM | CNS(=O)(=O)c1ccc(Nc2ccc(C(F)(F)F)cn2)c(-c2cn(Cc3ccccc3F)cn2)c1 [I-81, 3-[1-[(2-Fluorophenyl)methyl]imidazol-4-yl]-N-methyl-4-[[5-(trifluoromethyl)-2-pyridyl]amino]benzenesulfonamide] |  | 
< 0.1 µM | < 0.1 µM | CNS(=O)(=O)c1ccc(Nc2ccc(C(F)(F)F)cn2)c(-c2cn(C3CCC3)cn2)c1 [I-67, 3-(1-Cyclobutylimidazol-4-yl)-N-methyl-4-[[5-(trifluoromethyl)-2-pyridyl]amino]benzenesulfonamide] |  | 
< 0.1 µM | < 0.1 µM | CNS(=O)(=O)c1ccc(NCc2ccccc2)c(-c2cn(C3CC3)cn2)c1 [I-51, 4-(Benzylamino)-3-(1-cyclopropylimidazol-4-yl)-N-methyl-benzenesulfonamide] |  | 
> 0.5 µM | 0.1 to 0.5 µM | Cn1cnc(-c2cc(S(N)(=O)=O)ccc2NCc2ccccc2)c1 [I-42, 4-(Benzylamino)-3-(1-methylimidazol-4-yl)benzenesulfonamide] |  | 
 |  | CNS(=O)(=O)c1ccc(NC(=O)c2ccccc2)c(-c2cn(C)cn2)c1 [I-29, N-[2-(1-Methylimidazol-4-yl)-4-(methylsulfamoyl)phenyl]benzamide] | > 0.5 µM | > 0.5 µM
0.1 to 0.5 µM | 0.1 to 0.5 µM | CNS(=O)(=O)c1ccc(NCc2ccc(OC(F)(F)F)cc2)c(-c2cn(C)cn2)c1 [I-60, N-Methyl-3-(1-methyl-1H-imidazol-4-yl)-4-((4-(trifluoromethoxy)benzyl)amino)benzenesulfonamide] |  | 
> 0.5 µM | 0.1 to 0.5 µM | CNS(=O)(=O)c1ccc(NCc2ccc3ncsc3c2)c(-c2cn(C)cn2)c1 [I-73, 4-(1,3-Benzothiazol-6-ylmethylamino)-N-methyl-3-(1-methylimidazol-4-yl)benzenesulfonamide] |  | 
0.1 to 0.5 µM | < 0.1 µM | CNS(=O)(=O)c1ccc(Nc2ccc(C3CC3)cn2)c(-c2cn(C)cn2)c1 [I-79, 4-[(5-Cyclopropyl-2-pyridyl)amino]-N-methyl-3-(1-methylimidazol-4-yl)benzenesulfonamide] |  | 
> 0.5 µM | > 0.5 µM | CNS(=O)(=O)c1ccc(N[C@H]2CCc3ccccc32)c(-c2cn(C)cn2)c1 (single isomer, unassigned) [I-58] |  | 
 |  | CC(C)NS(=O)(=O)c1ccc(NCc2ccccc2)c(-c2cn(C)cn2)c1 [I-46, 4-(Benzylamino)-N-isopropyl-3-(1-methylimidazol-4-yl) benzenesulfonamide] | > 0.5 µM | 0.1 to 0.5 µM
0.1 to 0.5 µM | < 0.1 µM | CNS(=O)(=O)c1ccc(N[C@@H](C)c2cccc(C(F)(F)F)c2)c(-c2cn(C)cn2)c1 [I-83, N-Methyl-3-(1-methylimidazol-4-yl)-4-[[(1S)-1-[3-(trifluoromethyl)phenyl]ethyl]amino]benzenesulfonamide] |  | 
< 0.1 µM | < 0.1 µM | CNS(=O)(=O)c1ccc(Nc2ccc(C(F)(F)F)cc2)c(-c2cn(C)cn2)c1 [I-82, N-Methyl-3-(1-methyl-1H-imidazol-4-yl)-4-((4-(trifluoromethyl)phenyl)amino)benzenesulfonamide] |  | 
0.1 to 0.5 µM | 0.1 to 0.5 µM | CNS(=O)(=O)c1ccc(NCc2ccc3c(c2)OCO3)c(-c2cn(C)cn2)c1 [I-64, 4-(1,3-Benzodioxol-5-ylmethylamino)-N-methyl-3-(1-methylimidazol-4-yl)benzenesulfonamide] |  | 
